# Results reported in patent EP0103895A2, “Novel hydroxylamine derivatives, production and use thereof” (MEIJI SEIKA KABUSHIKI KAISHA, priority 1982, dated 1984).
# Where “and” joins values, the source holds several entries; their conditions need not be identical. Equal values may be shown once. Read-outs that look alike come from different tables or passages of the source.
# Tests used:
# [1] = tested on: fowl roundworm (Ascaridia galli); experiment: Anthelmintic test in chickens artificially infected with fowl roundworm, single oral dose in gelatin capsule, worm bodies counted within 48 hours (Test Examples A1, B1, C1, D1); format: in vivo; conditions: Ascaridia galli, po, 48 h, chickens, one value per chicken (No.1-3), read-out: Anthelmintic effect after 48 hours
# Method in brief: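 Groups of three chickens with confirmed Ascaridia galli infection given a single oral dose in gelatin capsule (10 and 20 mg/kg in A1 and B1; 30 and 50 mg/kg in C1; 15 and 30 mg/kg in D1). Worms expelled over 48 h and those remaining in the gut at necropsy counted to give anthelmintic percentage.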
# [2] = tested on: fowl roundworm (As. galli); experiment: Anthelmintic test in chickens artificially infected with fowl roundworm, compound added to feed, E.P.G. and worm count up to 21st day (Test Examples A2, B2, C2, D2); format: in vivo, Ascaridia galli; conditions: Ascaridia galli, po, 504 h, chickens, worm count on 21st day, one value per chicken, read-out: Anthelmintic effect
# [3] = tested on: canine whipworm (Trichuris vulpis); experiment: Anthelmintic test in naturally infected dogs with mixed infections, E.P.G. on 7th day: canine whipworm (Test Examples A3, B3, C3, D3); format: in vivo
# Procedure: (§1) Three dogs with mixed infections by canine whipworm (Trichuris vulpis), canine hookworm (Ancylostoma caninum) and canine roundworm (Toxocara canis) (naturally infected dogs) were employed in a group of two and a group of one.
# (§2) The compound provided for the test was Compound No.Al, and 20 mg/Kg thereof was placed in a gelatin capsule per 1 Kg of body weight, and administered orally to the two dogs. As control, only a gelatin capsule was administered orally to the one dog.
# (§3) Before administration and on the 7th day after administration, fecal matter testing was conducted to calculate the E.P.G., and the anthelmintic effect was judged by the changing of the E.P.G. to negative.
# (§4) As control, only gelatin capsules were administered orally to the one dog.
# (§5) The same method as in Test Example A3, but the compound provided for the test was Compound No. Cl. 30 mg/Kg of this compound was placed in a gelatin capsule per 1 Kg of body weight and administered orally to the two dogs. As control, only gelatin capsules were administered orally to the one dog.
# [4] = tested on: canine hookworm (Ancylostoma caninum); experiment: Anthelmintic test in naturally infected dogs with mixed infections, E.P.G. on 7th day: canine hookworm (Test Examples A3, B3, C3, D3); format: in vivo; conditions: dogs, 30 mg/Kg orally once, one value per dog
# Procedure: as §1, §2, §3, §4, §5
# [5] = tested on: canine roundworm (Toxocara canis); experiment: Anthelmintic test in naturally infected dogs with mixed infections, E.P.G. on 7th day: canine roundworm (Test Examples A3, B3, C3, D3); format: in vivo; conditions: dogs, 30 mg/Kg orally once, one value per dog
# Procedure: as §1, §2, §3, §4, §5
# [6] = tested on: stomach worm (Haemonchus controtus); experiment: Anthelmintic test against cow stomach worm in naturally infected cows, E.P.G. on 7th day (Test Examples A6, B6, C6, D6); format: in vivo; conditions: cows
# Procedure: Three cows infected with stomach worm (naturally infected cows) were employed by grouping them into a group of two and a group of one.
# (§6) As control, only gelatin capsules were administered orally to the one cow.
# as §3, §6, §6
# [7] = tested on: swine Oesophagostomum (Oesophagostomum dentatum); experiment: Test of anthelmintic effect against swine Oesophagostomum in naturally infected pigs, E.P.G. on 7th day (Test Examples A8, B8, C8, D8); format: in vivo; conditions: pigs
# Procedure: Six pigs infected with swine Oesophagostomum (naturally infected pigs) were employed by grouping them into groups each of two pigs.
# As a control, only gelatin capsules were administered orally to the two pigs.
# as §3
# [8] = tested on: canine filaria; Dirofilaria immitis; experiment: Test of anthelmintic effect against canine filaria in naturally infected dogs, subcutaneous injection, microfilaria in blood and adult filaria at autopsy (Test Examples A10, B10, C10, D10); format: in vivo; conditions: for inhibition in vivo at 30 mg/kg: Dirofilaria immitis, sc, 240 h
# [9] = tested on: Diphyllobothrium erinacei; experiment: Test of anthelmintic effect against Diphyllobothrium erinacei (tapeworm) in experimentally infected cats (Test Examples A5, B5, C5, D5)
compound,measurement,setting,value
"C=CCN(OC)C(C)=O [Compound B1, N-allyl-N-acetyl-O-methylhydroxylamine]",inhibition in vivo at 30 mg/kg,[1]; 30 mg/Kg orally in gelatin capsule,100%
same,inhibition in vivo at 50 mg/kg,[1]; 50 mg/Kg orally in gelatin capsule,100%
same,inhibition in vivo at 20 ppm,[2]; 20 ppm added to feed,80 to 90%
same,inhibition in vivo at 50 ppm,[2]; 50 ppm added to feed,100%
same,anthelmintic effect,"[3]; dogs with mixed infections (Trichuris vulpis, Ancylostoma caninum, Toxocara canis; statement covers all three), one administration of 30 mg/Kg",marked anthelmintic effect
same,Change of E.P.G. Before administration,"[3]; dogs, 30 mg/Kg orally once, Trichuris vulpis, baseline, one value per dog, 30 mg/kg","5,100 E.P.G. and 2,700 E.P.G."
same,Change of E.P.G. 7th day,"[3]; dogs, 30 mg/Kg orally once, Trichuris vulpis, one value per dog",0 E.P.G.
same,Change of E.P.G. Before administration,"[4]; baseline, 30 mg/kg","4,500 E.P.G. and 8,700 E.P.G."
same,Change of E.P.G. 7th day,[4],0 E.P.G.
same,Change of E.P.G. Before administration,"[5]; baseline, 30 mg/kg","6,100 E.P.G. and 3,200 E.P.G."
same,Change of E.P.G. 7th day,[5],0 E.P.G.
same,Change of E.P.G. Before administration,"[6]; 20 mg/Kg orally once, baseline, one value per cow, 20 mg/kg","2,500 E.P.G. and 3,300 E.P.G."
same,Change of E.P.G. 7th day,"[6]; 20 mg/Kg orally once, one value per cow",0 E.P.G.
same,anthelmintic effect,[6]; one administration of 20 mg/Kg,marked anthelmintic effect
same,Change of E.P.G. Before administration,"[7]; 20 mg/Kg orally once, baseline, one value per pig, 20 mg/kg","1,200 E.P.G. and 2,600 E.P.G."
same,Change of E.P.G. 7th day,"[7]; 20 mg/Kg orally once, one value per pig",0 E.P.G.
same,anthelmintic effect,[7]; one administration of 20 mg/Kg,marked anthelmintic effect
same,inhibition in vivo at 30 mg/kg,"[8]; dog, 30 mg/Kg x 3, subcutaneous injection, read-out: Effect on adult filaria: Percent of worms killed",58%
same,inhibition in vivo at 30 mg/kg,"[8]; dogs, administration of 30 mg/Kg repeated three times, given as about 50% or more, read-out: anthelmintic effect against adult filaria",≥ 50%
same,Number of microfilaria/20 µl on 10th day after the last administration,"[8]; dog, 30 mg/Kg x 3, subcutaneous injection, suspension in 1% Tween 80",0 /20 µl
same,Effect on adult filaria: Number of worms killed/ Total parasite,"[8]; dog, 30 mg/Kg x 3, subcutaneous injection, 30 mg/kg",8/15 and 12/21
same,anthelmintic effect against microfilaria (mf),"[8]; dogs, administration of 30 mg/Kg repeated three times",marked anthelmintic effect
same,Number of worm bodies remaining in enteron,"[9]; cats infected with 5 plerocercoids, 50 mg/Kg x 5 times orally, autopsy ten days after administration, one value per cat",0
same,Worm egg detection on 10th day after administration,"[9]; cats, 50 mg/Kg x 5 orally, one value per cat (Table B7)",-
same,anthelmintic effect,"[9]; cats, 5 continuous administrations of 50 mg/Kg",marked anthelmintic effects
